This passage reports GI50 and TGI results from PubChem BioAssay (NCI).

Several values for one entry are separate records, joined by “and”; a condition that tells them apart may be missing. Identical values can stand only once.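 1) Cells in 96-well plates. 2) Compound, 48 h, 5 concentrations. 3) Linear interpolation between surrounding doses. 4) Unreached endpoint = highest concentration. Here, GI50 denotes the concentration required for 50% inhibition of growth. TGI: concentration producing complete growth inhibition.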

Test systems include HL-60(TB) leukemia; NCI-H226 lung; UO-31 renal; DU-145 prostate; MDA-MB-231 breast; SR leukemia; PC-3 prostate; HCC-2998 colon; NCI-H23 lung; HS 578T breast.
Holding throughout (test): growth of human tumour cells (NCI), 48 h

As to `COc1ccc(-c2nn(-c3cccc(Cl)c3)cc2-c2cc(-c3cccs3)no2)cc1`, the GI50 was 4.73 µM in the experiment on HL-60(TB) leukemia; 4.11 µM in the experiment on NCI-H226 lung; 2.56 µM in the experiment on UO-31 renal; 7.08 µM in the experiment on DU-145 prostate; 3.08 µM in the experiment on MDA-MB-231 breast; 3.03 µM in the experiment with SR leukemia. Moreover, the GI50 was 3.2 µM in the experiment with PC-3 prostate, 3.47 µM in the experiment on HCC-2998 colon, 3.82 µM in the experiment with NCI-H23 lung and 4.42 µM in the experiment on HS 578T breast. The TGI with HL-60(TB) leukemia was found to be 38.3 µM; in the experiment on NCI-H226 lung, 30.3 µM; in the experiment on UO-31 renal, 11.8 µM; in the experiment on DU-145 prostate, 35.8 µM; in the experiment on MDA-MB-231 breast, 16.9 µM; in the experiment on SR leukemia it was 12.1 µM. Moreover, the TGI with PC-3 prostate was determined as 36.9 µM; with HCC-2998 colon it was 14.6 µM; with NCI-H23 lung it was 20.8 µM; with HS 578T breast, 45.5 µM.

As to `Cc1ccc(NCCNCC(O)CO)c2c(=O)c3ccccc3sc12` (centres undefined), the GI50 was 1.62 µM in the experiment with HL-60(TB) leukemia; 1.65 µM with NCI-H226 lung; 1.12 µM in the experiment on UO-31 renal; 1.28 µM in the experiment with DU-145 prostate; 1.37 µM with MDA-MB-231 breast; 1.55 µM in the experiment with SR leukemia. The GI50 was 1.58 µM in the experiment with PC-3 prostate, 1.48 µM with HCC-2998 colon, 1.73 µM with NCI-H23 lung and 2.19 µM in the experiment with HS 578T breast. Also, the TGI with HL-60(TB) leukemia worked out at 3.7 µM; in the experiment on NCI-H226 lung, 3.44 µM; in the experiment with UO-31 renal, 2.48 µM; in the experiment on DU-145 prostate it was 2.62 µM; in the experiment with MDA-MB-231 breast it was 3 µM; with SR leukemia it was 3.97 µM. Further, the TGI was found to be 3.22 µM in the experiment on PC-3 prostate, 3.05 µM in the experiment with HCC-2998 colon, 3.54 µM in the experiment with NCI-H23 lung and 5.9 µM in the experiment with HS 578T breast.

On to `COc1cc(/C=C2\C(=O)Nc3ccc(Br)cc32)cc(OC)c1OC`, for which the GI50 in the experiment with HL-60(TB) leukemia is 4.36 µM; with NCI-H226 lung, 60.9 µM; with UO-31 renal it was 6.73 µM; in the experiment on DU-145 prostate it was 18.7 µM; in the experiment on MDA-MB-231 breast, 7.68 µM; with SR leukemia it was 0.304 µM. In addition, the GI50 with PC-3 prostate was 3.92 µM; with HCC-2998 colon, 57.4 µM; in the experiment with NCI-H23 lung it was 8.07 µM; in the experiment with HS 578T breast, 2.94 µM. Besides, the TGI was more than 100 µM in the experiment with HL-60(TB) leukemia; more than 100 µM in the experiment on NCI-H226 lung; more than 100 µM in the experiment on UO-31 renal; more than 100 µM in the experiment on DU-145 prostate; more than 52.9 µM with MDA-MB-231 breast; 3.08 µM with SR leukemia. For the same compound, the TGI with PC-3 prostate is more than 100 µM; with HCC-2998 colon, more than 100 µM; in the experiment with NCI-H23 lung, 66 µM; in the experiment with HS 578T breast, more than 78.7 µM.

Regarding `CCOC(=O)C(=Cc1c(-c2ccccc2)[nH]c2ccccc12)C(=O)OCC`, the GI50 was 4.19 µM in the experiment with HL-60(TB) leukemia; 11.3 µM in the experiment on NCI-H226 lung; 3.92 µM in the experiment on UO-31 renal; 9.69 µM in the experiment with DU-145 prostate; 5.71 µM in the experiment with MDA-MB-231 breast; 2.09 µM with SR leukemia. In addition, the GI50 is 3.19 µM with PC-3 prostate, 10.1 µM in the experiment with HCC-2998 colon, 2.56 µM with NCI-H23 lung and 3.53 µM with HS 578T breast. Moreover, the TGI in the experiment on HL-60(TB) leukemia is 35.5 µM; in the experiment on NCI-H226 lung it was 34.7 µM; in the experiment with UO-31 renal, 17.1 µM; in the experiment with DU-145 prostate it was 28.4 µM; with MDA-MB-231 breast, 34.8 µM; with SR leukemia, 9.43 µM. In addition, the TGI with PC-3 prostate worked out at 14.3 µM; in the experiment with HCC-2998 colon, 22.6 µM; in the experiment with NCI-H23 lung it was 11.7 µM; with HS 578T breast, 28.8 µM.

`CC(C)c1ccc2c(c1)c(SC(C)(C)C)c(CC(C)(C)C(=O)O)n2Cc1ccc(Cl)cc1`: the GI50 was 8.5 µM with HL-60(TB) leukemia; 12.6 µM in the experiment on NCI-H226 lung; 7.72 µM in the experiment on UO-31 renal; 6.76 µM in the experiment with DU-145 prostate; 12.6 µM with MDA-MB-231 breast; 10.6 µM with SR leukemia. Further, the GI50 with PC-3 prostate was 8.18 µM; in the experiment on HCC-2998 colon, 7.71 µM; in the experiment on NCI-H23 lung, 10.8 µM; in the experiment with HS 578T breast, 11.4 µM. Also, the TGI with HL-60(TB) leukemia was 30.3 µM; in the experiment on NCI-H226 lung it was 30.8 µM; in the experiment with UO-31 renal it was 20.7 µM; in the experiment on DU-145 prostate, 19 µM; in the experiment with MDA-MB-231 breast, 27.3 µM; in the experiment on SR leukemia it was 36.7 µM. Also, the TGI in the experiment with PC-3 prostate was 23.4 µM; in the experiment with HCC-2998 colon, 20.4 µM; in the experiment on NCI-H23 lung it was 28.1 µM; in the experiment with HS 578T breast it was 29.4 µM.

Turning to `COc1ccc(-c2nn3ncccc3c2-c2ccnc(Nc3cccc(C(F)(F)F)c3)n2)cc1`, the GI50 in the experiment on HL-60(TB) leukemia is 8.74 µM; in the experiment with NCI-H226 lung it was 9.16 µM; in the experiment with UO-31 renal, 4.83 µM; in the experiment on DU-145 prostate, 12.1 µM; with MDA-MB-231 breast, 8.12 µM; in the experiment with SR leukemia, 13.5 µM. Moreover, the GI50 with PC-3 prostate was 7.25 µM; with HCC-2998 colon it was 5.33 µM; in the experiment on NCI-H23 lung, 7.99 µM; with HS 578T breast it was 8.29 µM. Further, the TGI in the experiment with HL-60(TB) leukemia is more than 25 µM; in the experiment on NCI-H226 lung, more than 25 µM; with UO-31 renal, more than 22.9 µM; in the experiment on DU-145 prostate it was more than 25 µM; in the experiment on MDA-MB-231 breast it was more than 25 µM; in the experiment with SR leukemia it was more than 25 µM. For the same compound, the TGI in the experiment on PC-3 prostate is more than 25 µM; with HCC-2998 colon, 18.6 µM; in the experiment on NCI-H23 lung, more than 25 µM; in the experiment with HS 578T breast it was more than 25 µM.

For the compound `COc1ccc2c(c1)c(-c1cc(-c3cn(C)c4ccc(OC)cc34)[nH]n1)cn2C`, the GI50 with HL-60(TB) leukemia, in the experiment on NCI-H226 lung, with UO-31 renal, in the experiment with DU-145 prostate, in the experiment on MDA-MB-231 breast and in the experiment on SR leukemia was more than 100 µM in each case. Also, the GI50 in the experiment on PC-3 prostate, in the experiment on HCC-2998 colon, in the experiment on NCI-H23 lung and with HS 578T breast was more than 100 µM in each case. Also, the TGI in the experiment with HL-60(TB) leukemia, in the experiment on NCI-H226 lung, with UO-31 renal, in the experiment on DU-145 prostate, with MDA-MB-231 breast and with SR leukemia was more than 100 µM each time. The TGI in the experiment with PC-3 prostate, in the experiment with HCC-2998 colon, in the experiment on NCI-H23 lung and with HS 578T breast was more than 100 µM in each case.

Regarding `C=C[C@@]1(C)CC(=O)[C@]2(O)[C@@]3(C)[C@@H](O)CCC(C)(C)[C@@H]3[C@H](O)[C@@H](OC(C)=O)[C@@]2(C)O1`, the TGI with HL-60(TB) leukemia, with NCI-H226 lung, in the experiment on UO-31 renal, in the experiment with DU-145 prostate, in the experiment on MDA-MB-231 breast and in the experiment with SR leukemia was more than 100 µM throughout. The TGI in the experiment on PC-3 prostate, with HCC-2998 colon, with NCI-H23 lung and with HS 578T breast was more than 100 µM throughout.

Consider `Oc1cccc(-c2nc(N3CCOCC3)c3oc4ncccc4c3n2)c1`, for which the GI50 with HL-60(TB) leukemia is 0.117 µM and 0.364 µM; in the experiment on NCI-H226 lung, 4.12 µM and 7.21 µM; with UO-31 renal, 0.0354 µM and 0.0315 µM; in the experiment on DU-145 prostate, 0.188 µM and 0.161 µM; in the experiment on MDA-MB-231 breast it was 0.34 µM and 0.3 µM; in the experiment on SR leukemia, 0.244 µM. Further, the GI50 with PC-3 prostate was 0.0505 µM and 0.0462 µM; with HCC-2998 colon, 1.85 µM and 0.401 µM; in the experiment with NCI-H23 lung, 0.269 µM and 0.292 µM; in the experiment with HS 578T breast it was 0.0576 µM and 0.0526 µM. Further, the TGI is 78.6 µM and 68.3 µM with NCI-H226 lung; 0.571 µM and 0.449 µM in the experiment on UO-31 renal; more than 100 µM in the experiment on DU-145 prostate; 54.5 µM and 33.2 µM with MDA-MB-231 breast; 7.42 µM in the experiment with SR leukemia; more than 100 µM with PC-3 prostate. The TGI was 8.87 µM and > 33.9 µM in the experiment with HCC-2998 colon; > 100 µM and 31.4 µM in the experiment with NCI-H23 lung; 2.94 µM and 0.409 µM in the experiment on HS 578T breast.

On to `CC(=O)Oc1ccc2c(c1)O/C(=C\c1ccc(O)cc1)C2=O`, for which the TGI in the experiment on HL-60(TB) leukemia, with NCI-H226 lung, with UO-31 renal, with DU-145 prostate, in the experiment with MDA-MB-231 breast and in the experiment with SR leukemia was more than 100 µM in each case. Moreover, the TGI in the experiment on PC-3 prostate, with HCC-2998 colon, in the experiment on NCI-H23 lung and in the experiment with HS 578T breast was more than 100 µM each time.
